Laboratory results as given in patent US20240262803A1, “COMPOUNDS, COMPOSITIONS AND METHODS OF TREATING DISORDERS” (Chungdu Anticancer Bioscience Ltd, priority 2021, published 2024).
Entries after “also recorded” stand apart in the source; their conditions may differ.

Legend:
[1] = tested on: breast cancer cell line MDA-MB-231; assay: Minimal effective concentration that elicits polyploidy, MDA-MB-231; assay type: cell-based; settings: Homo sapiens, read-out: MECP: Minimal effective concentration that elicits polyploidy
[2] = tested on: colon cancer cell line SW460; assay: MTT assay of cellular proliferation, SW460; assay type: cell-based; settings: Homo sapiens, SW480; read-out: EC50: Concentration that inhibits 50% of proliferation
Method in brief: (§1)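 EC50, the concentration halving proliferation, came from formazan absorbance at 570 nm after 3–4 h MTT incubation. Cells at 20–30% confluence were treated with drug over 1 nM–10 μM. The culture medium was DMEM plus 5% FBS, glutamine and pyruvate at 37° C.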

[3] = tested on: RPEMYC^H2B-GFP cells; assay: Mechanism-informed phenotypic screening assay (mitotic arrest, polyploidy; GE IN-Cell Analyzer 2000); assay type: cell-based; settings: 20 nM to 20 μM, 24, 48 or 72 hours, read-out: Min. Effective conc. for polyploidy (≥5%)
Method in brief: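 Cells expressing Histone 2B-EGFP (RPEMYC^H2B-GFP) were plated 18-24 h before exposure to compounds at 20 nM to 20 μM. At 24, 48 or 72 h, imaging scored mitotic arrest or change in DNA content. Value is the lowest concentration giving polyploid accumulation at 48 h.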

[4] = tested on: lung cancer cell line NCI-H2170; assay: MTT assay of cellular proliferation, NCI-H2170; assay type: cell-based; settings: Homo sapiens, read-out: EC50: Concentration that inhibits 50% of proliferation
Method: (§2) Six lung cancer cell lines (NCI-H23, NCI-H460, NCI-H596, NCI-H2170, Calu-6 and A549), two colon cancer cell lines (HCT116 and SW460), one breast cancer cell line MDA-MB-231, one gastric cancer cell line NCI-N87, one prostate cancer cell line DU145, one cervical cancer cell line Hela, and one glioblastoma cell line T98G were obtained from ATCC. The T2 HCC cell line was derived from a mouse liver cancer model initiated by a transgene of MYC (Reference). All cell lines were cultured in DMEM (Gibco, Cleveland, TN, USA) supplemented with 5% fetal bovine serum (Gibco), penicillin (100 U/mL)-streptomycin (100 μg/mL) (Gibco, Cat. No. 15140-122), 2 mM L-glutamine (Gibco, 200 mM solution, Cat. No. 25030081), and 1 mM sodium pyruvate (Gibco, 100 mM solution, Cat. No. 11360070) at 37° C. in a humidified incubator that was maintained at 5% CO2.
(§3) The MTT assay measures cellular metabolic activity as a proxy for cell viability and involves the conversion of the water-soluble yellow dye MTT [3-(4,5-dimethylthiazol-2-yl)-2,5-diphenyltetrazolium bromide] into an insoluble purple formazan by the action of mitochondrial reductase. Formazan is then solubilized and its concentration is determined by measuring the optical density (OD) value at a wavelength of 570 nm. The value is in proportional to the number of live cells with excellent linearity up to ˜10^6 cells per well. The MTT assay was used to determine the EC50 value, the concentration of a compound that leads to 50% inhibition of cellular proliferation. Briefly, cells were split when growing to the mid-Log phase. Cells in 100 μL of culture medium were seeded into each well of 96-well microplates and cultivated for 15˜24 hours to reach a confluence of 20˜30% and were then exposed to drugs at concentrations ranging from 1 nM to 10 μM. At the endpoint, 20 μL of a MTT stock solution in DMSO (5 mg/mL) was added to each well that contains […] of DMEM. The microplates were left in the cell culture incubator for 3˜4 h before subjected to solubilization and determination of formazan at A570 in a microplate reader (BioTek ELX808iu). […] Therefore, these compounds might hold a broad utility in the treatment of a large variety of human malignancies.

[5] = tested on: lung cancer cell line Calu-6; assay: MTT assay of cellular proliferation, Calu-6; assay type: cell-based; settings: Homo sapiens, read-out: EC50: Concentration that inhibits 50% of proliferation
Method: as §2, §3

[6] = tested on: cervical cancer cell line Hela; assay: MTT assay of cellular proliferation, Hela; assay type: cell-based; settings: Homo sapiens, read-out: EC50: Concentration that inhibits 50% of proliferation
Method in brief: as §1

[7] = tested on: prostate cancer cell line DU145; assay: MTT assay of cellular proliferation, DU145; assay type: cell-based; settings: Homo sapiens, DU-145, read-out: EC50: Concentration that inhibits 50% of proliferation
Method: as §2, §3

[8] = tested on: gastric cancer cell line NCI-N87; assay: Minimal effective concentration that elicits polyploidy, NCI-N87; assay type: cell-based; settings: Homo sapiens, read-out: MECP: Minimal effective concentration that elicits polyploidy
[9] = tested on: glioblastoma cell line T98G; assay: Minimal effective concentration that elicits polyploidy, T98G; assay type: cell-based, human
[10] = tested on: lung cancer cell line NCI-H460; assay: Minimal effective concentration that elicits polyploidy, NCI-H460; assay type: cell-based, human
[11] = tested on: SW480; assay: Minimal effective concentration that elicits polyploidy, SW480; assay type: cell-based; settings: Homo sapiens, read-out: MECP: Minimal effective concentration that elicits polyploidy
[12] = tested on: cervical cancer cell line Hela; assay: Soft agar colony formation assay, Hela; assay type: cell-based, human; settings: 3D culture, FIG. 2
Method: as §2
Measuring the ability of cells to grow in soft agar has been popularly believed as the gold standard assay for cellular transformation in vitro. In the Soft Agar Assay, cells grow from single cells to cell colonies in a semi-solid agar solution that keeps them away from the solid surface and allows growth in an anchorage-independent way.
The anchorage-independent growth of cells is one of the hallmarks of cancer cells. […] Cell culture medium was changed once every two days until colonies were ready to photograph. […]

SMILES	minimal effective concentration [1]	EC50 [2]	minimal effective concentration [3]	EC50 [4]	EC50 [5]	EC50 [6]	EC50 [7]	minimal effective concentration [8]	MECP: Minimal effective concentration that elicits polyploidy [9]	MECP: Minimal effective concentration that elicits polyploidy [10]	minimal effective concentration [11]	anchorage-independent growth in soft agar [12]
COC(=O)c1cc(OC)cc(Oc2ncccc2-c2ccncc2)c1 [Compound 2, Methyl 3-([3,4′-bipyridin]-2-yloxy)-5-methoxybenzoate]	0.001 to 1 µM	1 to 1000 nM	1 µM	1 to 1000 nM	1 to 1000 nM	1 to 1000 nM	1 to 1000 nM	0.001 to 1 µM	A (A: 1 nM < conc. ≤ 1 μM)	B (B: 1 μM < conc. ≤ 10 μM)	0.001 to 1 µM	–
COC(=O)c1cc(Oc2ncccc2-c2ccnc(N)n2)cc(C(=O)OC)c1 [Compound 21, dimethyl 5-((3-(2-aminopyrimidin-4-yl)pyridin-2-yl)oxy)isophthalate]	0.001 to 1 µM	–	1 µM	1 to 1000 nM	1 to 1000 nM	1 to 1000 nM	1 to 1000 nM	0.001 to 1 µM	B (B: 1 μM < conc. ≤ 10 μM)	B (B: 1 μM < conc. ≤ 10 μM)	–	Suppress the Anchorage-independent Growth; also recorded: effectively suppressed the anchorage-independent growth
COC(=O)c1cc(OC)cc(Oc2ncccc2-c2ccnc(N)n2)c1 [Compound 23, Methyl 3-((3-(2-aminopyrimidin-4-yl)pyridin-2-yl)oxy)-5-methoxybenzoate]	0.001 to 1 µM	1 to 1000 nM	1 µM	1 to 1000 nM	1 to 1000 nM	1 to 1000 nM	1 to 1000 nM	0.001 to 1 µM	A (A: 1 nM < conc. ≤ 1 μM)	B (B: 1 μM < conc. ≤ 10 μM)	0.001 to 1 µM	–
COC(=O)c1cc(Oc2ncccc2-c2ccncc2)cc(C(=O)OC)c1 [Compound 1, Dimethyl 5-([3,4′-bipyridin]-2-yloxy)isophthalate]	0.001 to 1 µM	–	1 µM	1 to 1000 nM	1 to 1000 nM	1 to 1000 nM	1 to 1000 nM	0.001 to 1 µM	A (A: 1 nM < conc. ≤ 1 μM)	B (B: 1 μM < conc. ≤ 10 μM)	–	Suppress the Anchorage-independent Growth; also recorded: effectively suppressed the anchorage-independent growth
